Reference: PubChem BioAssay AID330 (DTP/NCI, 2004)
Where “and” joins values, the source holds several entries; their conditions need not be identical. Equal entries are not always repeated. Inconclusive results and toxic doses are left out. Rule for the calls: active = survival T/C of 150% or more; inactive = T/C below 125% in these data. Peptide text beside a SMILES is read from it.

System: P388 leukemia ip, CD2F1 mice, survival T/C
Experiment: NCI In Vivo Anticancer Drug Screen. Data for tumor model P388 Leukemia (intraperitoneal) in CD2F1 (CDF1) mice
Conditions: endpoint: median survival time, higher = longer survival
Method in brief: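 Mice carrying the transplanted tumor received test compound or vehicle. Survival was recorded in each group, and the value is the treated-group measurement divided by that of the vehicle-treated control group.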

[1] = dose: 25.0 mg/kg/injection, schedule: Q01DX005 (ip), vehicle: Klucel (hydroxypropylcellulose) (HPC)
[2] = dose: 50.0 mg/kg/injection, schedule: Q01DX005 (ip), vehicle: Klucel (hydroxypropylcellulose) (HPC)
[3] = dose: 100.0 mg/kg/injection, schedule: Q01DX005 (ip), vehicle: Klucel (hydroxypropylcellulose) (HPC)
[4] = dose: 200.0 mg/kg/injection, schedule: Q01DX005 (ip), vehicle: Klucel (hydroxypropylcellulose) (HPC)
[5] = dose: 6.25 mg/kg/injection, schedule: Q04DX002 (ip), vehicle: saline with Tween-80
[6] = dose: 12.5 mg/kg/injection, schedule: Q04DX002 (ip), vehicle: saline with Tween-80
[7] = dose: 50.0 mg/kg/injection, schedule: Q01DX005 (ip), vehicle: saline with Tween-80
[8] = dose: 100.0 mg/kg/injection, schedule: Q01DX005 (ip), vehicle: saline with Tween-80
[9] = dose: 200.0 mg/kg/injection, schedule: Q01DX005 (ip), vehicle: saline with Tween-80
[10] = dose: 60.0 mg/kg/injection, schedule: Q01DX005 (ip), vehicle: saline with Tween-80
[11] = dose: 100.0 mg/kg/injection, schedule: Q04DX003 (ip), vehicle: saline with Tween-80
[12] = dose: 200.0 mg/kg/injection, schedule: Q04DX003 (ip), vehicle: saline with Tween-80
[13] = dose: 400.0 mg/kg/injection, schedule: Q04DX003 (ip), vehicle: saline with Tween-80

Measured: T/C

C[CH2][Sn]([CH2]C)([CH2]C)[O]C(=O)CO
inactive: dose: 1.56 mg/kg/injection, schedule: Q01DX009 (ip), vehicle: saline with Tween-80 115 % of control | dose: 3.12 mg/kg/injection, schedule: Q01DX009 (ip), vehicle: saline with Tween-80 122 % of control

C1OCOCO1
inactive: [1] 98 % of control | [2] 95 % of control | [3] 95 % of control | [4] 109 % of control | dose: 400.0 mg/kg/injection, schedule: Q01DX005 (ip), vehicle: Klucel (hydroxypropylcellulose) (HPC) 101 % of control

OC1C=C2CCN3Cc4cc5c(cc4C(C1O)C23)OCO5 (stereo not drawn)
inactive: dose: 8.75 mg/kg/injection, schedule: Q01DX009 (ip), vehicle: Klucel (hydroxypropylcellulose) (HPC) 96 % of control | dose: 17.5 mg/kg/injection, schedule: Q01DX009 (ip), vehicle: Klucel (hydroxypropylcellulose) (HPC) 96 % of control | dose: 35.0 mg/kg/injection, schedule: Q01DX009 (ip), vehicle: Klucel (hydroxypropylcellulose) (HPC) 106 % of control | dose: 70.0 mg/kg/injection, schedule: Q01DX009 (ip), vehicle: Klucel (hydroxypropylcellulose) (HPC) 109 % of control

CC1(C)CC(=NNC(N)=S)CC(C)(C)N1
inactive: dose: 50.0 mg/kg/injection, schedule: Q01DX009 (ip), vehicle: saline 94 % of control | dose: 100.0 mg/kg/injection, schedule: Q01DX009 (ip), vehicle: saline 97 % of control | dose: 200.0 mg/kg/injection, schedule: Q01DX009 (ip), vehicle: saline 99 % of control

NC(=S)N/N=C\c1nccc2ncccc12
inactive: [5] 113 % of control | [6] 124 % of control

N#CC(Br)C(N)=O (stereo not drawn)
inactive: dose: 1.25 mg/kg/injection, schedule: Q01DX009 (ip), vehicle: saline with Tween-80 104 % of control | dose: 2.5 mg/kg/injection, schedule: Q01DX009 (ip), vehicle: saline with Tween-80 124 % of control | dose: 5.0 mg/kg/injection, schedule: Q01DX009 (ip), vehicle: saline with Tween-80 119 % of control

CNC(=S)N/N=C1/CCOC(C)/C1=N\NC(=S)NC (stereo not drawn)
inactive: [7] 93 % of control | [8] 95 % of control | [9] 92 % of control

NC(=O)NN(Cc1ccc2c(c1)OCO2)N=O
inactive: dose: 50.0 mg/kg/injection, schedule: Q01DX009 (ip), vehicle: Klucel (hydroxypropylcellulose) (HPC) 99 % of control | dose: 100.0 mg/kg/injection, schedule: Q01DX009 (ip), vehicle: Klucel (hydroxypropylcellulose) (HPC) 107 % of control | dose: 200.0 mg/kg/injection, schedule: Q01DX009 (ip), vehicle: Klucel (hydroxypropylcellulose) (HPC) 91 % of control

O=C(CCl)N1CCN(C(c2ccccc2)c2ccccc2)CC1
inactive: [10] 99 % of control | dose: 120.0 mg/kg/injection, schedule: Q01DX005 (ip), vehicle: saline with Tween-80 100 % of control | dose: 240.0 mg/kg/injection, schedule: Q01DX005 (ip), vehicle: saline with Tween-80 99 % of control

c1ccc2c(CCN3CCCCC3)c[nH]c2c1
inactive: dose: 15.0 mg/kg/injection, schedule: Q01DX005 (ip), vehicle: saline with Tween-80 92 % of control | dose: 30.0 mg/kg/injection, schedule: Q01DX005 (ip), vehicle: saline with Tween-80 88 % of control | [10] 101 % of control and 87 % of control

O=[N+]([O-])c1ccc(N=NN2CCOC2)cc1
inactive: [7] 99 % of control | [8] 103 % of control | [9] 105 % of control

COc1cc(C[C@H](CO)[C@@H](CO)Cc2ccc3c(c2)OCO3)cc(OC)c1OC
inactive: [5] 95 % of control | [6] 102 % of control | dose: 25.0 mg/kg/injection, schedule: Q04DX002 (ip), vehicle: saline with Tween-80 106 % of control

C=C(C)C(=O)N(C)c1nc(N(C)C)nc(N(C)C)n1
inactive: [2] 101 % of control | [3] 103 % of control | [4] 103 % of control

COc1cc(C(=O)Oc2c(OC)cc(C(=O)c3cc4c(cc3C)OCO4)cc2OC)cc(OC)c1OC
inactive: [2] 88 % of control | [3] 88 % of control

O=C1CC[C@H]2[C@@H]3N1c1ccccc1[C@@]31CCN3C/C(=C/CBr)[C@@H]2C[C@H]31
inactive: dose: 7.5 mg/kg/injection, schedule: Q01DX005 (ip), vehicle: Klucel (hydroxypropylcellulose) (HPC) 100 % of control | dose: 15.0 mg/kg/injection, schedule: Q01DX005 (ip), vehicle: Klucel (hydroxypropylcellulose) (HPC) 102 % of control

O=c1[nH][nH]c2c(N=Cc3ccccc3O)ccc(F)c12
inactive: dose: 50.0 mg/kg/injection, schedule: Q01DX005 (ip), vehicle: Klucel + Tween-80 108 % of control | dose: 100.0 mg/kg/injection, schedule: Q01DX005 (ip), vehicle: Klucel + Tween-80 102 % of control | dose: 200.0 mg/kg/injection, schedule: Q01DX005 (ip), vehicle: Klucel + Tween-80 108 % of control

COc1cc(C)c(/C=C/C(C)=C/c2cc(C)cc(=O)o2)c(C)c1C
inactive: [1] 86 % of control | [2] 88 % of control | [3] 86 % of control and 92 % of control

C=C1CC2(CC3CC(C2C)C3(C)C)OC1=O (stereo not drawn)
inactive: dose: 25.0 mg/kg/injection, schedule: Q04DX002 (ip), vehicle: saline 102 % of control | dose: 50.0 mg/kg/injection, schedule: Q04DX002 (ip), vehicle: saline 100 % of control | dose: 100.0 mg/kg/injection, schedule: Q04DX002 (ip), vehicle: saline 100 % of control and 90 % of control | dose: 400.0 mg/kg/injection, schedule: Q04DX002 (ip), vehicle: saline 100 % of control

CC1CN2CC(C)O[Si](CC[Si](C)(C)C)(O1)OC(C)C2 (stereo not drawn)
inactive: [2] 104 % of control | [3] 90 % of control

CCOP(=O)(c1ccccc1)N1CCOCC1 (stereo not drawn)
inactive: dose: 100.0 mg/kg/injection, schedule: Q04DX003 (ip), vehicle: saline 105 % of control | dose: 200.0 mg/kg/injection, schedule: Q04DX003 (ip), vehicle: saline 108 % of control | dose: 400.0 mg/kg/injection, schedule: Q04DX003 (ip), vehicle: saline 95 % of control

CN(C)C1=NS(=O)(=O)c2ccccc21
inactive: [7] 100 % of control | [8] 106 % of control | [9] 93 % of control

O=c1ccs[nH]1
inactive: dose: 3.12 mg/kg/injection, schedule: Q01DX009 (ip), vehicle: Klucel (hydroxypropylcellulose) (HPC) 100 % of control | dose: 6.25 mg/kg/injection, schedule: Q01DX009 (ip), vehicle: Klucel (hydroxypropylcellulose) (HPC) 102 % of control and 104 % of control and 117 % of control | dose: 12.5 mg/kg/injection, schedule: Q01DX009 (ip), vehicle: Klucel (hydroxypropylcellulose) (HPC) 102 % of control and 114 % of control and 124 % of control | dose: 25.0 mg/kg/injection, schedule: Q01DX009 (ip), vehicle: Klucel (hydroxypropylcellulose) (HPC) 100 % of control and 90 % of control

CC1CC(C)(C)N=C(CCC2CCCC2=O)O1 (stereo not drawn)
inactive: dose: 100.0 mg/kg/injection, schedule: Q01DX009 (ip), vehicle: saline with Tween-80 91 % of control | [11] 95 % of control | dose: 200.0 mg/kg/injection, schedule: Q01DX009 (ip), vehicle: saline with Tween-80 100 % of control | [12] 100 % of control | dose: 400.0 mg/kg/injection, schedule: Q01DX009 (ip), vehicle: saline with Tween-80 104 % of control | [13] 104 % of control

NCCCCC(NC(=O)C(N)Cc1cnc[nH]1)C(=O)O (stereo not drawn) (H-His-Lys-OH; configuration not given here)
inactive: dose: 50.0 mg/kg/injection, schedule: Q01DX005 (ip), vehicle: saline 99 % of control | dose: 100.0 mg/kg/injection, schedule: Q01DX005 (ip), vehicle: saline 108 % of control | dose: 200.0 mg/kg/injection, schedule: Q01DX005 (ip), vehicle: saline 100 % of control

Cc1cc(C)c(O)c(N=Nc2ccccc2)c1
inactive: [11] 105 % of control | [12] 105 % of control | [13] 105 % of control
